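Test compounds were applied to cells in 96-well plates for 48 hours at 5 doses. GI50 marks 50% less growth. TGI: concentration producing complete growth inhibition.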
What was measured:
Assay in all cases: NCI anticancer screen, dose series, 48 h
HL-60(TB) leukemia = tested on: HL-60(TB) leukemia
MDA-MB-435 = tested on: MDA-MB-435
NCI/ADR-RES ovarian = tested on: NCI/ADR-RES ovarian
CAKI-1 renal = tested on: CAKI-1 renal
DU-145 prostate = tested on: DU-145 prostate
UACC-62 melanoma = tested on: UACC-62 melanoma
T-47D breast = tested on: T-47D breast
SW-620 colon = tested on: SW-620 colon
SN12C renal = tested on: SN12C renal
A498 renal = tested on: A498 renal
SK-MEL-5 melanoma = tested on: SK-MEL-5 melanoma
M14 melanoma = tested on: M14 melanoma
SNB-19 CNS = tested on: SNB-19 CNS
OVCAR-4 ovarian = tested on: OVCAR-4 ovarian
HOP-62 NSCLC = tested on: HOP-62 NSCLC
NCI-H226 lung = tested on: NCI-H226 lung
KM12 colon = tested on: KM12 colon
MOLT-4 leukemia = tested on: MOLT-4 leukemia
NCI-H460 lung = tested on: NCI-H460 lung
NCI-H23 lung = tested on: NCI-H23 lung
786-0 renal = tested on: 786-0 renal
HCC-2998 colon = tested on: HCC-2998 colon
HCT-15 colon = tested on: HCT-15 colon
HT29 colon = tested on: HT29 colon
MDA-MB-468 breast = tested on: MDA-MB-468 breast
IGROV1 ovarian = tested on: IGROV1 ovarian
TK-10 renal = tested on: TK-10 renal
BT-549 breast = tested on: BT-549 breast
HS 578T breast = tested on: HS 578T breast
COLO 205 colon = tested on: COLO 205 colon
OVCAR-3 ovarian = tested on: OVCAR-3 ovarian
MDA-MB-231 breast = tested on: MDA-MB-231 breast
HCT-116 colon = tested on: HCT-116 colon
OVCAR-5 ovarian = tested on: OVCAR-5 ovarian
K-562 leukemia = tested on: K-562 leukemia
SK-MEL-2 melanoma = tested on: SK-MEL-2 melanoma
SF-539 CNS = tested on: SF-539 CNS
A549 NSCLC = tested on: A549 NSCLC
LOX IMVI melanoma = tested on: LOX IMVI melanoma
SK-OV-3 ovarian = tested on: SK-OV-3 ovarian
MCF7 breast = tested on: MCF7 breast
ACHN renal = tested on: ACHN renal
UACC-257 melanoma = tested on: UACC-257 melanoma
U251 CNS = tested on: U251 CNS
PC-3 prostate = tested on: PC-3 prostate
OVCAR-8 ovarian = tested on: OVCAR-8 ovarian
NCI-H522 lung = tested on: NCI-H522 lung
CCRF-CEM leukemia = tested on: CCRF-CEM leukemia
SF-268 CNS = tested on: SF-268 CNS
RPMI-8226 leukemia = tested on: RPMI-8226 leukemia
HOP-92 NSCLC = tested on: HOP-92 NSCLC
EKVX NSCLC = tested on: EKVX NSCLC
UO-31 renal = tested on: UO-31 renal
MALME-3M melanoma = tested on: MALME-3M melanoma
SF-295 CNS = tested on: SF-295 CNS
SK-MEL-28 melanoma = tested on: SK-MEL-28 melanoma
SNB-75 CNS = tested on: SNB-75 CNS
RXF 393 renal = tested on: RXF 393 renal

## COC(=O)C[C@](O)(CCCC(C)C)C(=O)O[C@H]1C(OC)=C[C@@]23CCCN2CCc2cc4c(cc2[C@@H]13)OCO4
HL-60(TB) leukemia
  GI50: 0.771 µM
  TGI: 2.27 µM
MDA-MB-435
  GI50: 1.83 µM
  TGI: 12.9 µM
NCI/ADR-RES ovarian
  GI50: 2.55 µM
  TGI: 19 µM
CAKI-1 renal
  GI50: 2.41 µM
  TGI: 35.2 µM
DU-145 prostate
  GI50: 1.91 µM
  TGI: 17.9 µM
UACC-62 melanoma
  GI50: 3.15 µM
  TGI: 16.6 µM
T-47D breast
  GI50: 1.62 µM
  TGI: 31.8 µM
SW-620 colon
  GI50: 1.49 µM
  TGI: 32.5 µM
SN12C renal
  GI50: 3.62 µM
  TGI: 23.2 µM
A498 renal
  GI50: 0.776 µM
  TGI: 5.78 µM
SK-MEL-5 melanoma
  GI50: 0.823 µM
  TGI: 2.45 µM
M14 melanoma
  GI50: 1.14 µM
  TGI: 4.66 µM
SNB-19 CNS
  GI50: 0.917 µM
  TGI: 6.24 µM
OVCAR-4 ovarian
  GI50: 1.64 µM
  TGI: 17 µM
HOP-62 NSCLC
  GI50: 2.8 µM
  TGI: 30 µM
NCI-H226 lung
  GI50: 0.94 µM
  TGI: 7.23 µM
KM12 colon
  GI50: 1.54 µM
  TGI: 21.6 µM
MOLT-4 leukemia
  GI50: 0.699 µM
  TGI: 3.4 µM
NCI-H460 lung
  GI50: 0.695 µM
  TGI: 4.78 µM
NCI-H23 lung
  GI50: 1.35 µM
  TGI: 6.66 µM
786-0 renal
  GI50: 1.96 µM
  TGI: 14.3 µM
HCC-2998 colon
  GI50: 0.723 µM
  TGI: 2.71 µM
HCT-15 colon
  GI50: 1.13 µM
  TGI: 4.22 µM
HT29 colon
  GI50: 1.16 µM
  TGI: 5.99 µM
MDA-MB-468 breast
  GI50: 0.869 µM
  TGI: 3.2 µM
IGROV1 ovarian
  GI50: 1.77 µM
  TGI: 18.8 µM
TK-10 renal
  GI50: 4.12 µM
  TGI: 27.3 µM
BT-549 breast
  GI50: 0.995 µM
  TGI: 3.74 µM
HS 578T breast
  GI50: 2.12 µM
  TGI: 18.5 µM
COLO 205 colon
  GI50: 1.79 µM
  TGI: 8.73 µM
OVCAR-3 ovarian
  GI50: 1.13 µM
  TGI: 8.52 µM
MDA-MB-231 breast
  GI50: 3.88 µM
  TGI: 14.6 µM
HCT-116 colon
  GI50: 0.992 µM
  TGI: 5.44 µM
OVCAR-5 ovarian
  GI50: 2.56 µM
  TGI: 15.4 µM
K-562 leukemia
  GI50: 1.14 µM
  TGI: 11.1 µM
SK-MEL-2 melanoma
  GI50: 3.96 µM
  TGI: 12.7 µM
SF-539 CNS
  GI50: 0.838 µM
  TGI: 2.24 µM
A549 NSCLC
  GI50: 1.39 µM
  TGI: 17.7 µM
LOX IMVI melanoma
  GI50: 0.852 µM
  TGI: 4.45 µM
SK-OV-3 ovarian
  GI50: 1.62 µM
  TGI: 38.2 µM
MCF7 breast
  GI50: 0.751 µM
  TGI: 2.79 µM
ACHN renal
  GI50: 1.21 µM
  TGI: 6.61 µM
UACC-257 melanoma
  GI50: 2.16 µM
  TGI: 15.6 µM
U251 CNS
  GI50: 1.21 µM
  TGI: 11.8 µM
PC-3 prostate
  GI50: 1.38 µM
  TGI: 14.6 µM
OVCAR-8 ovarian
  GI50: 1.79 µM
  TGI: 19.7 µM
NCI-H522 lung
  GI50: 1.03 µM
  TGI: 2.97 µM
CCRF-CEM leukemia
  GI50: 1.02 µM
  TGI: 7.08 µM
SF-268 CNS
  GI50: 5.01 µM
  TGI: 22.8 µM
RPMI-8226 leukemia
  GI50: 1.05 µM
  TGI: 2.99 µM
HOP-92 NSCLC
  GI50: 2.3 µM
  TGI: 18.6 µM
EKVX NSCLC
  GI50: 2.29 µM
  TGI: 18.1 µM
UO-31 renal
  GI50: 1.07 µM
  TGI: 11.2 µM
MALME-3M melanoma
  GI50: 0.888 µM
  TGI: 3.22 µM
SF-295 CNS
  GI50: 1.49 µM
  TGI: 11.6 µM
SK-MEL-28 melanoma
  GI50: 1.29 µM
  TGI: 8.71 µM
SNB-75 CNS
  GI50: 1.97 µM
  TGI: 13.9 µM
RXF 393 renal
  GI50: 0.641 µM
  TGI: 2.18 µM

Reference: PubChem BioAssay (NCI)
